From PubChem BioAssay (NCI)
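1) Cells in 96-well plates. 2) Compound, 48 h, 5 concentrations. 3) Linear interpolation between surrounding doses. 4) Unreached endpoint = highest concentration. The concentration for 50% growth inhibition is given as GI50. The concentration for full growth arrest is given as TGI.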

Tests used:
Assay in all cases: NCI anticancer screen, dose series, 48 h
[1] = system: U251 CNS
[2] = system: HOP-62 NSCLC
[3] = system: MALME-3M melanoma
[4] = system: NCI-H460 lung
[5] = system: HL-60(TB) leukemia
[6] = system: T-47D breast
[7] = system: A549 NSCLC
[8] = system: OVCAR-5 ovarian
[9] = system: PC-3 prostate
[10] = system: SF-268 CNS

Row | SMILES | GI50 [1] [µM] | TGI [1] [µM] | GI50 [2] [µM] | TGI [2] [µM] | GI50 [3] [µM] | TGI [3] [µM] | GI50 [4] [µM] | TGI [4] [µM] | GI50 [5] [µM] | TGI [5] [µM] | GI50 [6] [µM] | TGI [6] [µM] | GI50 [7] [µM] | TGI [7] [µM] | GI50 [8] [µM] | TGI [8] [µM] | GI50 [9] [µM] | TGI [9] [µM] | GI50 [10] [µM] | TGI [10] [µM]
1 | CN(C)c1ccc(/C=C/c2cc[n+](C)c(/C=C/c3ccc(N(C)C)cc3)c2)cc1 | 0.286 | 1.41 | 0.345 | 2.31 | 0.39 | 2.21 | 0.343 | 1.72 | 0.19 | 0.873 | 0.152 | 1.3 | 0.334 | 10.6 | 0.401 | 14.2 | 0.248 | 1.26 | 0.399 | 6.26
2 | COc1cc(-c2nc(SCCC(C)C)nc(Nc3ccc(S(N)(=O)=O)cc3)c2C#N)cc(OC)c1OC | 3.17 | > 100 | 4.12 | > 100 | 1.6 | 4.14 | 2.8 | 8.45 | 2.3 | 5.86 | 2.26 | > 100 | 3.46 | > 100 | 3.84 | > 100 | 2.72 | > 100 | 3.67 | > 100
3 | Cn1cc(-c2ccc(-c3ccc(C4=NC5(CC5)C(=O)N4C[C@@H]4CCN(C(=O)C5CC5)C4)cc3)cc2)cn1 | 10.5 | 29 | 25.2 | > 100 | 18.6 | 40.9 | 1.22 | 18 | 0.0615 | 25.9 | 13.6 | > 100 | 12.5 | 39.3 | 38.6 | > 100 | 22.8 | > 100 | 11.9 | > 100
4 | O=c1c(O)c(-c2cc(O)c(O)c(O)c2)oc2cc(O)cc(O)c12 | – | 32.8 | – | 41.4 | – | > 100 | – | 39.1 | – | > 100 | – | > 100 | – | > 100 | – | > 100 | – | > 100 | – | > 100
5 | COc1cc2c(cc1OC)C13CCN4CC5CCOC6CC(=O)N2C1C6C5CC43 (configuration not stated) | – | > 100 | – | > 100 | – | > 100 | – | > 100 | – | > 100 | – | > 100 | – | > 100 | – | > 100 | – | > 100 | – | > 100
6 | CCNC(=O)O[C@H]1CN[C@H](C#Cc2cc3ncnc(Nc4ccc(OCc5cccc(F)c5)c(Cl)c4)c3s2)C1 | 9.24 | > 25 | 14.9 | > 25 | 3.99 | 11.7 | 6.84 | > 25 | 5.71 | > 19.4 | 1.49 | > 25 | 5.29 | > 25 | 8.98 | > 25 | 5.93 | > 25 | 6 | > 25
7 | COc1cc(C2CC(c3ccc(Nc4ccnc5cc(Cl)ccc45)cc3)=NN2c2ccc(Cl)cc2)cc(OC)c1OC (configuration not stated) | 2.91 | > 100 | 2.14 | 47.5 | > 100 | > 100 | 3.16 | > 100 | 4.68 | > 100 | 2.13 | > 100 | 4.15 | > 100 | 6.08 | > 100 | 1.47 | > 100 | 5.49 | > 100
8 | CCN(CC)c1ccc(C(=O)c2ccc(N(CC)CC)cc2)cc1 | 0.504 | 23.2 | 0.805 | 98.2 | 0.334 | 17.4 | 0.372 | 1.99 | 0.407 | 2.5 | 0.789 | > 100 | 0.607 | > 58.1 | 4.1 | > 100 | 0.452 | > 100 | 0.666 | > 35.9
9 | C=C(c1ccccc1)[C@@]1(O)CC[C@@H]1N(CC#N)Cc1ccccc1 | – | > 100 | – | > 100 | – | 27.5 | – | > 100 | – | > 62.1 | – | 38.2 | – | > 73.5 | – | > 100 | – | 64.3 | – | > 83.9
10 | O=C1C(=O)c2cccnc2-c2ncccc21 | 0.131 | 0.674 | 0.225 | 0.882 | 0.215 | 0.769 | 0.0678 | 0.774 | 0.18 | 0.443 | 0.205 | 0.461 | 1.04 | 2.8 | 0.328 | 1.29 | 0.208 | 1.27 | 0.224 | 1.01
11 | CCCCCCCc1cc2c3c(nc4ccccc42)C(=O)c2cccnc2-c3n1 | 2.96 | 8.05 | 7.14 | 20 | 5.07 | 10.9 | 1.05 | 3.1 | 1.42 | – | 4.31 | 20.7 | 2.46 | 11.9 | 4.09 | 10.7 | 4.39 | 10.9 | 5.48 | 11.8
12 | Cc1ccc(O)c(NC(=O)c2ccc(CNc3ccnc(C(F)(F)F)c3)cc2)c1 | 23.5 | > 100 | 4.79 | 30.5 | 2.53 | 22.1 | 3.7 | 21.9 | 1.21 | 14.8 | 1.74 | 17.7 | 12.9 | > 100 | 16.3 | 69.1 | 9.5 | 38 | 10.8 | 38
13 | CN(Cc1cc(C(C)(C)C)cc(Br)c1O)Cc1cc(C(C)(C)C)cc(Br)c1O | – | 8.15 | – | 15.5 | – | 13.7 | – | 4.72 | – | 7.71 | – | 12.3 | – | 13.7 | – | 18.5 | – | 9.32 | – | 11.2
14 | CCN1CCN(CC(=O)N2c3cccc4cccc(c34)N(C(=O)CN3CCN(CC)CC3)C2c2cn(-c3ccccc3)nc2-c2cccc([N+](=O)[O-])c2)CC1 | 1.53 | 3.21 | 1.63 | 3.28 | 1.63 | 3.13 | 1.51 | 3.14 | 1.93 | 3.85 | 1.66 | 3.7 | – | – | 1.8 | 3.45 | 1.48 | 3.14 | 1.67 | 3.47
